Source: US11229714B2, “Electrochemical reduction or prevention of infections” (WASHINGTON STATE UNIVERSITY, priority 2015, dated 2022)

How the values were obtained:
[1] = tested on: Acinetobacter baumannii biofilms; test: In vitro A. baumannii biofilm viable cell count (CFU, drop-plate); type: cell-based
Method: Acinetobacter baumannii biofilms were used to test efficacy of the e-scaffold. An overnight culture of Acinetobacter baumannii (ATCC #BAA-1605) was grown in full-strength Luria Broth (LB) medium (Sigma-Aldrich, catalog #L3522) and was re-suspended in 5% LB medium (OD600≈0.5). […] After 2 hours of initial attachment, the bacterial suspension was removed and the biofilms were washed twice to remove planktonic cells and then refreshed with 5% LB medium. Biofilms were allowed to develop for 24 hours. Before the e-scaffolds were applied, the bulk liquid was refreshed.
E-scaffolds were sterilized by autoclaving (121° C., 15 min) and were saturated with sterilized liquid medium before being applied to existing Acinetobacter baumannii biofilms. The scaffolds were then polarized at −600 mVAg/AgCl for 24 hours, after which biofilms were processed for the quantification of viable cells by scraping the e-scaffold and biofilms from the glass surfaces of the petri dish into 5 ml of LB medium (1 g/L). The suspensions were centrifuged, and the resulting cell pellet was re-suspended in 1 ml of LB medium (1 g/L), and serial dilutions were prepared. Colony-forming units (“CFU”) were counted using a drop-plate count method. […]
To test whether H2O2 can remove biofilms in vitro and from infected porcine explants, exogenous H2O2 (VWR, Catalog #RC3819-16, adjusted to a concentration similar to that produced by the e-scaffold) was added to Acinetobacter baumannii biofilms. […] First, the biofilms were exposed to the total calculated amount of H2O2 in a single administration. […]
Catalase (Sigma-Aldrich, catalog #C1345) was added to an Acinetobacter baumannii biofilm and measured protection against H2O2 produced by the e-scaffold. Prior to addition, the H2O2 decomposition rate per unit of catalase was determined from H2O2 microelectrode measurements. The total amount of catalase required per min for complete decomposition of H2O2 was calculated based on the rate of H2O2 generation by the e-scaffold. To ensure complete H2O2 decomposition, catalase was added in excess of the calculated value (5×=0.05 mg/ml). […]

[2] = tested on: P. aeruginosa PAO1 biofilm cells; test: Intracellular hydroxyl free radical formation (HPF fluorescence); type: cell-based, Pseudomonas aeruginosa; details: treated vs untreated biofilm cells
Method: Intracellular hydroxyl free radical (OH•) formation was detected using 5 μM of a fluorescent reporter dye, 3′-(p-hydroxyphenyl fluorescein) (HPF). […] The samples were centrifuged (10,000×g for 10 min), and then the medium was replaced with a final concentration of 5 μM HPF prepared in 500 μL of 0.1 M PBS. After staining in the dark at room temperature for 15 minutes, samples were centrifuged at 10,000×g for 10 min. Supernatant was removed, and cells were rinsed and re-suspended with PBS. An aliquot (100 μL) was added to each well in a 96-well plate, and fluorescence intensity was quantified using a microplate reader with excitation at 490 and emission at 515 nm. For the OH• formation assays, fluorescence was estimated as ((Fluorescence with dye− Fluorescence without dye)/(Fluorescence without dye))*(100).

[3] = tested on: P. aeruginosa PAO1 biofilm cells; test: SEM imaging of biofilm cells; type: cell-based, Pseudomonas aeruginosa; details: 24 h treatment
Method: For SEM imaging, biofilms were grown for 24 hours on UV-sterilized, 0.22 μm type GV membrane filters placed in sterile 6-well plates. Exogenous H2O2 was added continuously at an average 0.008 mmol/h for 24 hours to mimic the e-scaffold generated H2O2 treatment. After treatment for 24 hours, both e-scaffolds and membrane filters with biofilms were aseptically collected from the untreated, e-scaffold treated, and exogenous H2O2 treated wells. The membrane filters and e-scaffolds were fixed overnight with 2.5% glutaraldehyde and 2% paraformaldehyde in 0.1 M phosphate buffer, followed by rinsing with 0.1 M phosphate buffer. The membranes and e-scaffolds were then dehydrated gradually by being washed sequentially with 10%, 30%, 50%, 70%, and 95% alcohol (10 min each) and 100% alcohol (3×10 min each). Samples were then sputter-coated with gold prior to field emission in-lens scanning electron microscopy imaging.

[4] = tested on: P. aeruginosa PAO1 persister cells; test: Treatment of persister cells isolated from ciprofloxacin-treated biofilms (CFU); type: cell-based, Pseudomonas aeruginosa
Method: (§1) To identify and isolate P. aeruginosa PAO1 persister cells, planktonic culture was grown to the stationary phase and the dose-dependent killing curve for ciprofloxacin (0-200 μg/ml) was investigated. […] Assessments were then performed on biofilms regrown from cells recovered after no treatment (“untreated biofilms”), cells recovered after e-scaffold treatment (“e-scaffold treated biofilm”), and “persister cells” that were isolated from biofilms treated with 200 μg/ml ciprofloxacin for 3.5 hours. The treated samples were washed with 0.9% NaCl and suspended in LB to isolate persister cells from ciprofloxacin-treated biofilms for subsequent experiments as described in more detail below.
The total number of viable cells was determined for ciprofloxacin-treated and untreated biofilms using the modified drop-plate cell counting method. Remaining persister cells were then exposed to either 200 μg/ml ciprofloxacin or e-scaffold treatment for 6 hours. Final CFU values were then determined.

[5] = tested on: P. aeruginosa PAO1 planktonic culture; test: Dose-dependent killing curve for ciprofloxacin, stationary phase planktonic culture; type: cell-based, Pseudomonas aeruginosa; details: 0-200 μg/ml, 200× of MIC
Method: as §1

[6] = tested on: P. aeruginosa PAO1 biofilms; test: Tobramycin susceptibility of P. aeruginosa PAO1 biofilms with or without e-scaffold (CFU); type: cell-based, Pseudomonas aeruginosa; details: biofilms regrown from persister cells, 10 μg/ml tobramycin, no e-scaffold
Method: For the following experiments, 20 g/L (1×) Luria broth (LB) medium (Sigma-Aldrich, catalog #L3522) was used to grow P. aeruginosa PAO1 cultures overnight, and 1 g/L (0.05×) LB was used as the growth medium for biofilms. Tobramycin (Sigma Aldrich, catalog #T4014) and ciprofloxacin (Sigma Aldrich, catalog #17850) solutions were diluted in 1 g/L (0.05×) LB for antibiotic susceptibility experiments and persister cell isolation, respectively. Minimum inhibitory concentrations (MICs) were determined for both antibiotics following the Clinical and Laboratory Standards Institute (CLSI) protocol. Other compounds used include 3′-p-hydroxyphenyl fluorescein dye (Invitrogen, catalog #H36004), propidium iodide (Invitrogen, catalog #L-7012), thiourea (AK Scientific, Inc., catalog #S726), and H2O2 (VWR, Catalog #RC3819-16).
Frozen stocks of P. aeruginosa PAO1 were cultured overnight in LB at 37° C. on a rotating table. For biofilm experiments, overnight culture was adjusted to OD600≈0.5 in LB and used as an inoculum. 2 ml of culture was used to inoculate sterile glass bottom petri dishes and allowed to form biofilms for 24 hours. Such one day-old biofilms were treated with e-scaffolds for 24 hours. Untreated and e-scaffold treated biofilm cells were then washed twice to remove loosely attached cells. Remaining cells were recovered for antibiotic susceptibility testing. […]

[7] = tested on: P. aeruginosa PAO1 biofilms; details: general statement, no e-scaffold; cited from earlier work

OO [H2O2, hydrogen peroxide]
reduction in Acinetobacter baumannii CFU ([1]; 45 mM H2O2 in a single administration, vs control without H2O2): ~3 log
reduction in bacterial counts ([1]; equivalent concentration of H2O2 delivered continuously over 24 hours): ~2 log
HPF fluorescence (OH• formation) [2]: increased fluorescence
cell morphology in SEM images [3]: membrane-compromised cells

O=C(O)c1cn(C2CC2)c2cc(N3CCNCC3)c(F)cc2c1=O [ciprofloxacin]
change of final population of persister cells ([4]; additional 6 hours of 200 μg/ml ciprofloxacin treatment): did not change
share of total biofilm cells belonging to the persister population ([4]; biofilms treated with 200 μg/ml ciprofloxacin for 3.5 hours): about 0.31%
ciprofloxacin concentration above which the surviving subpopulation plateaus [5]: above 50 μg/ml

NC[C@H]1O[C@H](O[C@H]2[C@H](O)[C@@H](O[C@H]3O[C@H](CO)[C@@H](O)[C@H](N)[C@H]3O)[C@H](N)C[C@@H]2N)[C@H](N)C[C@@H]1O [tobramycin]
reduction in viable cells [6]: 1.2±0.16 log
tobramycin typically required for P. aeruginosa PAO1 biofilm treatment [7]: > 500 × of MIC

catalase
effect on biofilm ([1]; catalase itself (0.05 mg/ml)): no significant effect
